In BindingDB's records for PubMed 8510008 (Eli Lilly, 1993):

Legend:
[1] = target: T1, 5-hydroxytryptamine receptor 2C (Homo sapiens, UniProt P28335)
T1 sequence (P28335 whole entry): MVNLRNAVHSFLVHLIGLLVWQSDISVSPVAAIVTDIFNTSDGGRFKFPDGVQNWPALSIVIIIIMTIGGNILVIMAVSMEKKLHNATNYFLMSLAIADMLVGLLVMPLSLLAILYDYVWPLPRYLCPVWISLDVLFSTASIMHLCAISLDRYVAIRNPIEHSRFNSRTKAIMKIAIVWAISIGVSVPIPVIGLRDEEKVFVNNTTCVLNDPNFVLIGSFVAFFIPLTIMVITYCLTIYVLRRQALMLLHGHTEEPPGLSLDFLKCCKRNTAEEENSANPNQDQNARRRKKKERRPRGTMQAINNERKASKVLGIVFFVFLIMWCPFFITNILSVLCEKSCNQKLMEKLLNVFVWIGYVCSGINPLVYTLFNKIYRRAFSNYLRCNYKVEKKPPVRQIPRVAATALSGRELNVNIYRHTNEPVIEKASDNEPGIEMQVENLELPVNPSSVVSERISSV

[2] = target: 5-hydroxytryptamine receptor 2A (Rattus norvegicus, UniProt P14842)
[3] = target: 5-hydroxytryptamine receptor 2A (Sus scrofa, UniProt P50129)
[4] = target: 5-hydroxytryptamine receptor 2A (Macaca mulatta, UniProt P50128)
Sequence of 5-hydroxytryptamine receptor 2A (Macaca mulatta, UniProt P50128) (P50128 whole entry): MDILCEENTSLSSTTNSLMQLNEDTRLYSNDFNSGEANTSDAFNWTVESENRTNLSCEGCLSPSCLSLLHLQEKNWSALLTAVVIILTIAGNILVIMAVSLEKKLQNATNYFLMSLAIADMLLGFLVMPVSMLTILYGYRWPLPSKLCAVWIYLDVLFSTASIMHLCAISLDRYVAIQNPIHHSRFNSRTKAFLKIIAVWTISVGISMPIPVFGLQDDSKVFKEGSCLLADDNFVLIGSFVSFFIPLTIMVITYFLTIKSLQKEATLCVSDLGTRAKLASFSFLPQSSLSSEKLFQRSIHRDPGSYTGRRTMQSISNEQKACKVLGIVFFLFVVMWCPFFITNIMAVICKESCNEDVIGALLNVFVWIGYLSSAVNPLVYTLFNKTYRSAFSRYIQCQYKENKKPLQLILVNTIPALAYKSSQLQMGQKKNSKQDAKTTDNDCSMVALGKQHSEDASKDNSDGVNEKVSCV

Sequence of 5-hydroxytryptamine receptor 2A (Sus scrofa, UniProt P50129) (P50129 whole entry): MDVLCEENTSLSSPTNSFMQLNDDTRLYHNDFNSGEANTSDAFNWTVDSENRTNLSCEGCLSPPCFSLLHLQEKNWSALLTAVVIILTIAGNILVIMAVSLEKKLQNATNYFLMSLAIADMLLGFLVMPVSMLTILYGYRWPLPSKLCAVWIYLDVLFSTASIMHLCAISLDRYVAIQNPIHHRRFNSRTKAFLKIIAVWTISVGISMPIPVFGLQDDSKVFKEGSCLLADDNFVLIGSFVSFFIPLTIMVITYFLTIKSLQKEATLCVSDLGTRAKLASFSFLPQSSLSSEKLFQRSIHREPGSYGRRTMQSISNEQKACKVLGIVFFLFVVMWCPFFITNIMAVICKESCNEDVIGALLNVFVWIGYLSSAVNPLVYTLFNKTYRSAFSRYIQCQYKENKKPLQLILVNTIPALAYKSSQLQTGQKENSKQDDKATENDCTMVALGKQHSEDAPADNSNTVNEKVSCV
Sequence of 5-hydroxytryptamine receptor 2A (Rattus norvegicus, UniProt P14842) (P14842 whole entry): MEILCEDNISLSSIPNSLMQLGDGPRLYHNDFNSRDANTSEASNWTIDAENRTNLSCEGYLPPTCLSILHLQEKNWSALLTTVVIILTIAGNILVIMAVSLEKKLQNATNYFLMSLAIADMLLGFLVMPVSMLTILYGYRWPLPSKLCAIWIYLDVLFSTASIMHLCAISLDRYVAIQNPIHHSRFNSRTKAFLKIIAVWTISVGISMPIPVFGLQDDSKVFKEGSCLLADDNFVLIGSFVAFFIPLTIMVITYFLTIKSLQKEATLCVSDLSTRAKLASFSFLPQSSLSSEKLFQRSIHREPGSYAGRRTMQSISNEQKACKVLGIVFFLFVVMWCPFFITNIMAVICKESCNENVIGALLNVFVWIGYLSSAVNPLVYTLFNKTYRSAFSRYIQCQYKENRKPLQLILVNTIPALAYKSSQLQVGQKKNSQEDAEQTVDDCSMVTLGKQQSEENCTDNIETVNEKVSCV

| Compound | Ki [1] | Ki [2] | Ki [3] | Ki [4] |
| --- | --- | --- | --- | --- |
| NCCc1c[nH]c2ccc(Br)cc12 | 1520 nM | 3240 nM | – | – |
| CC(O)C(C)OC(=O)[C@@H]1C[C@@H]2c3cccc4c3c(cn4C)C[C@H]2N(C)C1 (stereo partly specified) [1,6-Dimethylergoline-8-carboxylic acid 2-hydroxy-1-methylpropyl ester] | – | 9.3 nM | 57.2 nM | 56.8 nM |
| COc1ccc2c(c1)c(CCN)cn2C(C)C [1-Isopropyl-5-Methoxytryptamine] | – | 3560 nM | 7290 nM | – |
| Cc1ccc2c(c1)c(CCN)cn2C(C)C [1-Isopropyl-5-Methyltryptamine] | > 10000 nM | 4680 nM | – | – |
| CC(C)n1cc(CCN)c2ccccc21 [1-Isopropyltryptamine] | 7030 nM | 3860 nM | 5720 nM | – |
| NCCc1c[nH]c2ccccc12 [1H-indole-3-ethanamine] | 3000 nM | > 10000 nM | 3390 nM | – |
| CC(C)n1cc(CCN)c2cc(Br)ccc21 [5-Br-T, 1-Isopropyl] | 6240 nM | 3440 nM | – | – |
| Cc1ccc2[nH]cc(CCN)c2c1 [5-Methyl-tryptamine, 10] | 3220 nM | 6150 nM | – | – |
| CC(CO)NC(=O)C1C=C2c3cccc4[nH]cc(c34)CC2N(C)C1 (stereo unspecified) [CAS_60-79-7] | 31.1 nM | 46.4 nM | 3.8 nM | 3.4 nM |
| CC(O)C(C)OC(=O)C1CC2c3cccc4c3c(cn4C(C)C)CC2N(C)C1 (stereo unspecified) [CAS_60634-51-7] | 30.6 nM | 7.2 nM | 40 nM | 33.1 nM |
| CC(O)C(C)OC(=O)C1CC2c3cccc4[nH]cc(c34)CC2N(C)C1 (stereo unspecified) [LY86057] | 3.3 nM | 55.9 nM | 4.6 nM | 3.2 nM |
| CN1C[C@H](C(=O)NC2CCCCC2)C[C@@H]2c3cccc4[nH]cc(c34)C[C@H]21 [LY-193525] | – | 41.6 nM | 3.6 nM | 2.1 nM |
| CC(C)Cn1cc2c3c(cccc31)[C@H]1C[C@@H](C(=O)OC(C)C(C)O)CN(C)[C@@H]1C2 (stereo partly specified) [LY-197541] | – | 242 nM | 148 nM | 153 nM |
| COC1CCC(OC(=O)[C@@H]2C[C@@H]3c4cccc5[nH]cc(c45)C[C@H]3N(C)C2)CC1 (stereo partly specified) [LY-254239] | – | 42 nM | – | – |
| CN1C[C@@H](NS(=O)(=O)N(C)C)C[C@@H]2c3cccc4c3c(cn4C)C[C@H]21 [MESULERGINE] | – | – | 54.2 nM | 44.9 nM |
| CN1C[C@H](CNC(=O)OCc2ccccc2)C[C@@H]2c3cccc4c3c(cn4C)C[C@H]21 [METERGOLINE] | – | – | 0.37 nM | 0.82 nM |
| CN1C[C@H](C(=O)N[C@@H]2CCC[C@@H]2O)C[C@@H]2c3cccc4[nH]cc(c34)C[C@H]21 [N-[(1R,2S)-2-Hydroxycyclopentyl]-6-methylergoline-8-beta-carboxamide] | – | 64.4 nM | – | – |
| COC1CCC(OC(=O)C2CC3c4cccc5c4c(cn5C(C)C)CC3N(C)C2)CC1 (stereo unspecified) [NSC_60262] | – | 10.9 nM | – | – |
| CC(C)n1cc2c3c(cccc31)C1CC(C(=O)NC3CCCCC3)CN(C)C1C2 (stereo unspecified) [NSC_60740] | – | 6.9 nM | 30.7 nM | 26.5 nM |
| CC(C)n1cc2c3c(cccc31)C1CC(C(=O)NC3CCCC3O)CN(C)C1C2 (stereo unspecified) [NSC_132049] | 27.7 nM | 5.8 nM | – | – |
| COc1ccc2[nH]cc(CCN)c2c1 [tryptamine, 5-Methoxy] | 943 nM | – | 923 nM | – |
